Reference: patent US5965537A, “Dolastatin 15 derivatives with carbonyl and heterocyclic functionalities at the C-terminus” (BASF Aktiengesellschaft, priority 1997, dated 1999)

test system: HT-29 colon carcinoma cells; test: Cytotoxicity, microculture tetrazolium assay (MTT), HT-29 cell system; type: cell-based; conditions: 48 hours incubation, T/C of 50% growth inhibition
Protocol: Cytotoxicity was measured using standard methodology for adherent cell lines, such as the microculture tetrazolium assay (MTT). Details of this assay have been published (Alley, M. C., et al., Cancer Research, 48: 589-601,(1988)). Exponentially growing cultures of HT-29 colon carcinoma cells were used to make microtiter plate cultures. Cells were seeded at 5000-20,000 cells per well in 96-well plates (in […] of media), and grown overnight at 37° C. Test compounds were added, in 10-fold dilutions varying from 10^-4 M to 10^-10 M. Cells were then incubated for 48 hours. To determine the number of viable cells in each well, the MTT dye was added ([…] of a 3 mg/ml solution of 3-(4,5-dimethylthiazol-2-yl)-2,5-diphenyltetrazolium bromide in saline). This mixture was incubated at 37° C. for 5 hours, and then […] of 25% SDS, pH 2, was added to each well. After an overnight incubation, the absorbance of each well at 550 nm was read using an ELISA reader. The values for the mean ±SD of data from replicated wells were calculated, using the formula % T/C (% viable cells treated/control). The concentration of test compound which gives a T/C of 50% growth inhibition was designated as the IC50.
Table 9, below, presents the IC50 values determined in the HT-29 cell system: […]

Molecule	IC50
COc1ccc(C(=O)[C@@H]2CCCN2C(=O)[C@@H]2CCCN2C(=O)[C@H](C(C)C)N(C)C(=O)[C@@H](NC(=O)[C@H](C(C)C)N(C)C)C(C)C)cc1 [Compound I-22, (S)-(Me2 Val-Val-MeVal-Pro-pyrrolidin-2-yl)-(4-methoxyphenyl) ketone]	> 1000 nM
2-[(S)-(Me2 Val-Val-MeVal-Pro-pyrorolidin-2-yl)]-5-phenyloxazole [III-12]	900 nM
COCC(=O)[C@@H]1CCCN1C(=O)[C@@H]1CCCN1C(=O)[C@H](C(C)C)N(C)C(=O)[C@@H](NC(=O)[C@H](C(C)C)N(C)C)C(C)C [Compound I-12, (S)-(Me2 Val-Val-MeVal-Pro-pyrrolidin-2-yl)methoxy-methylketone]	400 nM
CC(=O)[C@@H]1CCCN1C(=O)[C@@H]1CCCN1C(=O)[C@H](C(C)C)N(C)C(=O)[C@@H](NC(=O)[C@H](C(C)C)N(C)C)C(C)C [Compound I-1, (S)-(Me2 Val-Val-MeVal-Pro-pyrrolidin-2-yl)-methylketone]	> 1000 nM
(S)-(Me2Val-Val-MeVal-Pro-pyrrolidin-2-yl)-trifluoromethyl-ketone [Compound I-54]	> 1000 nM
CC(C)[C@H](NC(=O)[C@H](C(C)C)N(C)C)C(=O)N(C)[C@H](C(=O)N1CCC[C@H]1C(=O)N1CCC[C@H]1C(=O)c1ccc(F)cc1)C(C)C [Compound I-32, (S)-(Me2Val-Val-MeVal-Pro-pyrrolidin-2-yl)-(4-fluorophenyl) ketone]	> 1000 nM
2-[(S)-(Me2 Val-Val-MeVal-Pro-pyrrolidin-2-yl)]-3,4-dimethyl-thiazole [III-28]	400 nM
CCCCC(=O)[C@@H]1CCCN1C(=O)[C@@H]1CCCN1C(=O)[C@H](C(C)C)N(C)C(=O)[C@@H](NC(=O)[C@H](C(C)C)N(C)C)C(C)C [Compound I-5, (S)-(Me2 Val-Val-MeVal-Pro-pyrrolidin-2-yl)butylketone]	> 1000 nM

test system: P388 lymphocytic leukemia (PS system) cell line; test: not given; conditions: cited from earlier work

Molecule	inhibition of growth of P388 lymphocytic leukemia cell line
Dolastatin 15	markedly inhibits the growth

test system: not given; test: not given; conditions: synthetic Dolastatin 15; cited from earlier work

Molecule	solubility in aqueous systems
Dolastatin 15	poor solubility in aqueous systems
